{"source": "patent US10613104B2", "about": "“Assay to determine anticoagulants in blood or blood plasma” (ZAFENA AB, priority 2014, dated 2020)", "test_system": "prothrombin time (PT) of normal plasma NKP", "experiment": "Three wet-chemistry Owren PT methods (Simple Simon PT; 20, 10, 5 μL sample in 200 μL reagent) on normal plasma NKP with added anticoagulant", "assay_type": "biochemical", "procedure": "Experimental work was performed with the commercially available ambient room temperature coagulation instrument, Simple Simon P T Zafena A B, Linköping, Sweden, with functions described in EP 1 636 595 B2. One instrument or reader was used for each PT-method. Alternatively, the same instrument could be used for all PT-methods.\nThe three instruments were used together standing next to one another on a laboratory bench in thermal equilibrium with the ambient room temperature of the laboratory.\nThe ambient room temperature in the laboratory where the work was done varied between 21° C. and 26° C.\nThe PT-reagent was the one delivered together with lot N223M of the Simple Simon PT product, a reagent of Owren-type that thus contains effective amounts of thromboplastin, fibrinogen and FV (the thromboplastin of rabbit brain origin and the fibrinogen and the FV of bovine blood plasma origin). Other Owren type reagents could also be used.\nThe reagent was in portions of 200 μL to which sample, citrated blood or citrated blood plasma, was added and mixed. The addition was by an end-to-end plastic capillary mounted at one end of a tubular body with a displacement mechanism in the other end, this to allow convenient mixing of sample and reagent. Such Mixxocaps with 10 μL capillaries are supplied with the Simple Simon PT product. To perform the experiments described, some Mixxocaps were fitted with 20 μL capillaries, or 5 μL capillaries instead of the 10 μL capillaries with which they were supplied by the manufacturer.\nThe ratios between the volume of blood or blood plasma to the volume of liquid reagent used in the experiments were 1:11, 1:21 and 1:41. Other ratios lying within the range of 1:5 and 1:100 or within the range of 1:2 and 1:200 could be used.\nAnticoagulated normal plasma was the NKP product GHI-163 lot 10188, MediRox AB, Nyköping, Sweden.\nIt was further relevant that all three PT-methods were calibrated, according to the invention, to show INR 1.000 for unadulterated NKP, and INR 1.357 for the NKP 1:2. All primary INR values, the results that appeared on the instrument screens (one instrument or reader was used for each PT-method), were therefore transformed to the corrected/calibrated INRc by the formula A*INRexp(B) where a and b were selected to given NKP and NKP 1:2 their desired values, 1.000 and 1.357, respectively. The INR-value of the NKP 1:2 was calculated by the formula of Lindahl et al for the INR of corresponding to PT-activity of 50% (half of the 100% that equates to INR 1.000). Above the INR calibrated columns (INRc) there is an upper number and a lower number, these are the above mentioned A and B, respectively.\nAs deemed relevant the upper number is selected to make NKP 1:2 to show INRc 1.357.\nClinical levels of interest range from 50 to 1000 μg/L in blood plasma.\nIn the selected calibration INR 1.000 and INR 1.357 were assigned to NKP and NKP 1:2, respectively, which was the same relevant calibration as selected in Examples 1 and 3 above.", "key": {"[1]": {"settings": "dabigatran 52 μg/L in NKP plasma"}, "[2]": {"settings": "dabigatran 157 μg/L in NKP plasma"}, "[3]": {"settings": "dabigatran 236 μg/L in NKP plasma"}, "[4]": {"settings": "dabigatran 355 μg/L in NKP plasma"}, "[5]": {"settings": "dabigatran 533 μg/L in NKP plasma"}, "[6]": {"settings": "dabigatran 800 μg/L in NKP plasma"}, "[7]": {"settings": "dabigatran 1000 μg/L in NKP plasma"}}}
{"substance": "dabigatran", "values": [{"measurement": "INR 10 μL sample", "setting": "[1]", "value": 1.09}, {"measurement": "INR 20 μL sample", "setting": "[1]", "value": 1.16}, {"measurement": "INRc 5 μL sample", "setting": "[1]", "value": 1.01}, {"measurement": "INRc 10 μL sample", "setting": "[1]", "value": 1.03}, {"measurement": "INRc 20 μL sample", "setting": "[1]", "value": 1.16}, {"measurement": "INRo", "setting": "[1]", "value": 0.98}, {"measurement": "ΔINRc 10 μL − 5 μL", "setting": "[1]", "value": 0.03}, {"measurement": "ΔINRc 20 μL − 5 μL", "setting": "[1]", "value": 0.15}, {"measurement": "INR 10 μL sample", "setting": "[2]", "value": 1.19}, {"measurement": "INR 20 μL sample", "setting": "[2]", "value": 1.31}, {"measurement": "INRc 5 μL sample", "setting": "[2]", "value": 1.08}, {"measurement": "INRc 10 μL sample", "setting": "[2]", "value": 1.14}, {"measurement": "INRc 20 μL sample", "setting": "[2]", "value": 1.36}, {"measurement": "INRo", "setting": "[2]", "value": 1.02}, {"measurement": "ΔINRc 10 μL − 5 μL", "setting": "[2]", "value": 0.05}, {"measurement": "ΔINRc 20 μL − 5 μL", "setting": "[2]", "value": 0.28}, {"measurement": "INR 5 μL sample", "setting": "[3]", "value": 1.17}, {"measurement": "INR 10 μL sample", "setting": "[3]", "value": 1.30}, {"measurement": "INR 20 μL sample", "setting": "[3]", "value": 1.53}, {"measurement": "INRc 5 μL sample", "setting": "[3]", "value": 1.12}, {"measurement": "INRc 10 μL sample", "setting": "[3]", "value": 1.26}, {"measurement": "INRc 20 μL sample", "setting": "[3]", "value": 1.67}, {"measurement": "INRo", "setting": "[3]", "value": 0.98}, {"measurement": "ΔINRc 10 μL − 5 μL", "setting": "[3]", "value": 0.14}, {"measurement": "ΔINRc 20 μL − 5 μL", "setting": "[3]", "value": 0.55}, {"measurement": "INR 5 μL sample", "setting": "[4]", "value": 1.28}, {"measurement": "INR 10 μL sample", "setting": "[4]", "value": 1.44}, {"measurement": "INR 20 μL sample", "setting": "[4]", "value": 1.82}, {"measurement": "INRc 5 μL sample", "setting": "[4]", "value": 1.22}, {"measurement": "INRc 10 μL sample", "setting": "[4]", "value": 1.41}, {"measurement": "INRc 20 μL sample", "setting": "[4]", "value": 2.09}, {"measurement": "INRo", "setting": "[4]", "value": 1.03}, {"measurement": "ΔINRc 10 μL − 5 μL", "setting": "[4]", "value": 0.19}, {"measurement": "ΔINRc 20 μL − 5 μL", "setting": "[4]", "value": 0.87}, {"measurement": "INR 5 μL sample", "setting": "[5]", "value": 1.44}, {"measurement": "INR 10 μL sample", "setting": "[5]", "value": 1.70}, {"measurement": "INR 20 μL sample", "setting": "[5]", "value": 2.38}, {"measurement": "INRc 5 μL sample", "setting": "[5]", "value": 1.37}, {"measurement": "INRc 10 μL sample", "setting": "[5]", "value": 1.70}, {"measurement": "INRc 20 μL sample", "setting": "[5]", "value": 2.98}, {"measurement": "ΔINRc 10 μL − 5 μL", "setting": "[5]", "value": 0.33}, {"measurement": "ΔINRc 20 μL − 5 μL", "setting": "[5]", "value": 1.61}, {"measurement": "INR 5 μL sample", "setting": "[6]", "value": 1.81}, {"measurement": "INR 10 μL sample", "setting": "[6]", "value": 2.50}, {"measurement": "INR 20 μL sample", "setting": "[6]", "value": 4.22}, {"measurement": "INRc 5 μL sample", "setting": "[6]", "value": 1.72}, {"measurement": "INRc 10 μL sample", "setting": "[6]", "value": 2.62}, {"measurement": "INRc 20 μL sample", "setting": "[6]", "value": 6.36}, {"measurement": "INRo", "setting": "[6]", "value": 0.81}, {"measurement": "ΔINRc 10 μL − 5 μL", "setting": "[6]", "value": 0.91}, {"measurement": "ΔINRc 20 μL − 5 μL", "setting": "[6]", "value": 4.64}, {"measurement": "INR 5 μL sample", "setting": "[7]", "value": 2.53}, {"measurement": "INR 10 μL sample", "setting": "[7]", "value": 3.55}, {"measurement": "INR 20 μL sample", "setting": "[7]", "value": 7.03}, {"measurement": "INRc 5 μL sample", "setting": "[7]", "value": 2.39}, {"measurement": "INRc 10 μL sample", "setting": "[7]", "value": 3.89}, {"measurement": "INRc 20 μL sample", "setting": "[7]", "value": 12.47}, {"measurement": "INRo", "setting": "[7]", "value": 0.88}, {"measurement": "ΔINRc 10 μL − 5 μL", "setting": "[7]", "value": 1.51}, {"measurement": "ΔINRc 20 μL − 5 μL", "setting": "[7]", "value": 10.08}, {"measurement": "content at which the INRc-difference (20 μL minus 5 μL) reaches 0.5", "setting": "normal plasma NKP, linear part of the graph (FIG. 8, FIG. 2)", "value": "about 200 μg/L"}]}
